The record followed here is patent US20260240844A1, “INHIBITORS OF CHD1L AND USES THEREOF” (The Regents of the University of Colorado, a body corporate, priority 2023, published 2026).

SMILES strings stand for the structures. Read-outs that look alike come from different tables or passages of the source.

One assay concerns HCC1937 tumor organoids. The assay is described as follows: Tumor organoid cytotoxicity, HCC1937. It counts as cell-based. Particulars: Homo sapiens; HCC1937 (BRCA1 mutant HR-deficient); read-out: IC50, tumor organoid viability, single agent. Here is the method:
Tumor organoid culture—Cell lines were cultured as tumor organoids by seeding 2,000 to 5,000 cells/well into uncoated 96 well U-bottom Ultra Low Attachment Microplates (Corning) using their corresponding medium. Cell aggregation was then promoted by centrifugation of the plates for 15 min at 1,000 rpm followed by the addition of Matrigel (Corning) to a 2-5% final concentration. Tumor organoids were maintained under standard cell culture conditions for 72 h prior to drug treatment.
Organoids were then transferred to a white solid bottom 96 well plate and incubated with an equal volume of CellTiter Glo 3D reagent (Promega) for 45 min on a shaker at 400 rpm. Luminescence was recorded using the EnVision plate reader (PerkinElmer) and values normalized to the controls using GraphPad Prism.

The next assay concerns the target T1, full length CHD1L (Homo sapiens, UniProt Q86WJ1).
T1 construct: host or cells: Rosetta 2 (DE3) pLysS cells (E. coli) for CHD1L
Kind of assay: Nucleosome remodeling FRET assay. The format is biochemical. The following applies: full length-CHD1L pre-incubated with 10 μM for 10 minutes. The source says:
For that, mononucleosomes composed of a human histone octamer containing a Cy5-tagged H2A, wrapped by a Cy3-labelled DNA template (EpiCypher, Cat #16-4201) were used. […] Right after the addition of ATP the assay was monitored overtime using Cy3 excitation (531 nm) and simultaneous detection of Cy3 (595 nm) and Cy5 (685 nm) emission signals using an EnVision plate reader (PerkinElmer). Data are expressed as the ratio of Cy3/Cy5 signal overtime.
Inhibition of nucleosome remodeling by CHD1L inhibitors blocks DDR signaling. CHD1L's main role is chromatin remodeling and DNA relaxation, moving from a tightly condensed DNA to an accessible state allowing for DNA transcription and repair. Thus, the effect of CHD1L ATPase inhibition on its nucleosome remodeling activity using a FRET-based assay was used. The FRET assay measures the distancing of Cy3 on DNA and Cy5 on the H2A histone upon nucleosome sliding.

The next assay deals with HCT116 tumor organoids. Kind of assay: Viability of isolated EMT phenotype HCT116 tumor organoids. The following applies: Homo sapiens, HCT-116, 72 h. The format is cell-based.
The next assay concerns Colo678 cells. Kind of assay: Colo678 cell viability, combination with chemotherapy. The format is cell-based. The following applies: Homo sapiens, COLO-678, Colo678 cells, read-out: IC50 5-FU.
In another assay the test system is HCT116 Parental cells. Kind of assay: HCT116 Parental cell viability, combination with chemotherapy. The format is cell-based. Particulars: Homo sapiens, HCT-116, HCT116 cells, read-out: IC50 5-FU.
A further assay concerns MiaPaca2 cells. The assay is described as follows: MiaPaca2 cell viability, combination with chemotherapy. It counts as cell-based. Particulars: Homo sapiens, MIA PaCa-2, MiaPaca2 cells, read-out: IC50 5-FU. The source says: The cell viability assays and Bliss synergy analyses are as described above in Examples 1-9 and 11-12.
The test system of another assay is SW620 Parental cells. Kind of assay: SW620 Parental cell viability, combination with chemotherapy. The format is cell-based. Particulars: Homo sapiens, SW-620, SW620 cells, read-out: IC50 5-FU.
The next assay relates to CRC patient samples. Kind of assay: Tumor growth inhibition index of CRC patient samples. It counts as in vivo. The source says: Analytical measurements include tumor volume by caliper and survival. […] Using this information, 8 patient samples with diverse genetic background mutations, stage of cancer, site of cancer (primary vs metastatic) were initially selected (Table 2).

T1 sequence (Q86WJ1 16-879): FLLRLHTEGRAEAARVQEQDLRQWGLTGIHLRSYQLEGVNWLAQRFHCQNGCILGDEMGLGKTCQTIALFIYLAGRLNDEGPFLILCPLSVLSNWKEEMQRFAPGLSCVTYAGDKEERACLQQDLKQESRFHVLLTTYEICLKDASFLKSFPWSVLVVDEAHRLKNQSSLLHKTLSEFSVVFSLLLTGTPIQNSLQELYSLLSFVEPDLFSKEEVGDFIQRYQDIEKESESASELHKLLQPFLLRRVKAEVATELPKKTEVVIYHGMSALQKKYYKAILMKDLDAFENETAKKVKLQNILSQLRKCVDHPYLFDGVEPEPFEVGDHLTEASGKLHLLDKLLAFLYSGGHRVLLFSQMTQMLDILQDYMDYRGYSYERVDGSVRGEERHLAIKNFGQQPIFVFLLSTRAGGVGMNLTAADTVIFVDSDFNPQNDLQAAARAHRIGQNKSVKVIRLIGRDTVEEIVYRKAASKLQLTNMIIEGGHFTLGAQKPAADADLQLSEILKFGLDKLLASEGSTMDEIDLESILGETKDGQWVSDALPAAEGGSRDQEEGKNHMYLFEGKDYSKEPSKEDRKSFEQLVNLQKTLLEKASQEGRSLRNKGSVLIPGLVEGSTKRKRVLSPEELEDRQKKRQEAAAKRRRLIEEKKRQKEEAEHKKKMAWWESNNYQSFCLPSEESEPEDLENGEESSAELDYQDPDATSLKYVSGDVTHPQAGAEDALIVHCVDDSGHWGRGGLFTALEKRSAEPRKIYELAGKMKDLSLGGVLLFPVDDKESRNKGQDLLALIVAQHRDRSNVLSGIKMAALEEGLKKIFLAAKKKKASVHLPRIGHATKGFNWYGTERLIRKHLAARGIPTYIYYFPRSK

Broadly, the IC50 is the concentration at which inhibition is half-maximal. On to `Cc1cc(Nc2ccc(NC(=O)Cc3cccs3)cc2)nc(N2CCCC2)n1` [Compound 6, N-(4-((6-methyl-2-(pyrrolidin-1-yl)pyrimidin-4-yl)amino)phenyl)-2-(thiophen-2-yl)acetamide], for which the IC50 with HCC1937 tumor organoids stood at 2.8 µM. For the same molecule, the nucleosome remodeling rate entry on full length CHD1L is listed as “reduction of the remodeling rate”.
Take `O=C(c1cc(Cc2n[nH]c(=O)c3ccccc23)ccc1F)N1CCN(C(=O)C2CC2)CC1` [olaparib]: the IC50 is roughly 30 µM with HCT116 tumor organoids (combined with Compound 6, read-out: IC50 olaparib) and roughly 600 µM in the assay with HCT116 tumor organoids (olaparib alone).
On to `O=c1[nH]cc(F)c(=O)[nH]1` [Compound 5-FU, 5-fluorouracil], for which the IC50 in the assay on Colo678 cells (Compound 6.11 0 μM) worked out at 3430 µM; with Colo678 cells (Compound 6.11 3 μM), 717 µM; in the assay with Colo678 cells (Compound 6.11 3.25 μM), 99.4 µM; in the assay on Colo678 cells (Compound 6.11 3.5 μM) it was 58.5 µM; in the assay on Colo678 cells (Compound 12 0 μM), 75100 µM; in the assay on Colo678 cells (Compound 12 1 μM) it was 549 µM. For the same molecule, the IC50 worked out at 392 µM with Colo678 cells (Compound 12 1.5 μM); 205 µM in the assay on Colo678 cells (Compound 12 2 μM); 7520 µM in the assay with Colo678 cells (Compound 13 0 μM); 544 µM with Colo678 cells (Compound 13 3.5 μM); 432 µM with Colo678 cells (Compound 13 3.75 μM); 246 µM with Colo678 cells (Compound 13 4 μM). Besides, the half-maximal inhibitory concentration (IC50) in the assay with Colo678 cells (Compound 14 2.5 μM) was determined as 149 µM; with Colo678 cells (Compound 14 2.75 μM) it was 74.7 µM; in the assay on Colo678 cells (Compound 14 3 μM), 50.4 µM; in the assay with Colo678 cells (Compound 20 0 μM) it was 14800 µM; in the assay on Colo678 cells (Compound 20 3.5 μM), 170 µM; in the assay with Colo678 cells (Compound 20 4 μM) it was 60 µM. Besides, the IC50 came out at 34.5 µM in the assay with Colo678 cells (Compound 20 4.5 μM); 95.7 µM with HCT116 Parental cells (Compound 11 0 μM); 192 µM with HCT116 Parental cells (Compound 11 2.5 μM); 63.4 µM in the assay on HCT116 Parental cells (Compound 11 3 μM); 43.2 µM in the assay on HCT116 Parental cells (Compound 11 3.5 μM); 103 µM with HCT116 Parental cells (Compound 12 0 μM). Also, the IC50 in the assay on HCT116 Parental cells (Compound 12 5 μM) was found to be 34.6 µM; in the assay on HCT116 Parental cells (Compound 12 6 μM), 11.5 µM; in the assay with MiaPaca2 cells (Compound 6.11 0 μM), 238 µM; in the assay on MiaPaca2 cells (Compound 6.11 4 μM) it was 74.4 µM; in the assay on MiaPaca2 cells (Compound 6.11 4.25 μM), 68.7 µM; in the assay with MiaPaca2 cells (Compound 6.11 4.5 μM), 38.3 µM. Moreover, the half-inhibitory concentration (IC50) in the assay with MiaPaca2 cells (Compound 7 0 μM) was 68.2 µM; in the assay with MiaPaca2 cells (Compound 7 7 μM), 61.8 µM; in the assay on MiaPaca2 cells (Compound 7 8 μM), 56.7 µM; with MiaPaca2 cells (Compound 7 9 μM), 46.7 µM; with MiaPaca2 cells (Compound 8 0 μM) it was 55.6 µM; in the assay with MiaPaca2 cells (Compound 8 2 μM), 66.2 µM. Besides, the IC50 in the assay on MiaPaca2 cells (Compound 8 2.25 μM) was 60.4 µM; in the assay on MiaPaca2 cells (Compound 8 2.5 μM), 53.8 µM; with MiaPaca2 cells (Compound 12 0 μM) it was 69.7 µM; in the assay on MiaPaca2 cells (Compound 12 3.75 μM), 32 µM; with MiaPaca2 cells (Compound 12 4 μM) it was 16.3 µM; with MiaPaca2 cells (Compound 12 4.25 μM), 15.9 µM. Moreover, the IC50 in the assay on MiaPaca2 cells (Compound 13 0 μM) amounted to 57.2 µM; in the assay with MiaPaca2 cells (Compound 13 5 μM), 60.9 µM; in the assay with MiaPaca2 cells (Compound 13 6 μM), 58.5 µM; with MiaPaca2 cells (Compound 13 […]) it was 50.7 µM; in the assay with SW620 Parental cells (Compound 11 0 μM), 20.8 µM; in the assay with SW620 Parental cells (Compound 11 2 μM), 59.5 µM. The half-maximal inhibitory concentration (IC50) with SW620 Parental cells (Compound 11 2.25 μM) worked out at 54.4 µM; with SW620 Parental cells (Compound 11 2.5 μM), 47.7 µM; in the assay with SW620 Parental cells (Compound 12 2 μM), 41.4 µM; in the assay on SW620 Parental cells (Compound 12 2.25 μM) it was 23.9 µM; in the assay on SW620 Parental cells (Compound 12 2.5 μM), 15.4 µM. Moreover, the “5FU Response (tumor growth inhibition index)” value with CRC patient samples (patient sample CRC001, Primary, KRAS) came out at 185.8%; with CRC patient samples (patient sample CRC026, Metastatic), 77.3%; in the assay on CRC patient samples (patient sample CRC042, Primary, KRAS, TP53), 107.8%; in the assay on CRC patient samples (patient sample CRC102, Metastatic, KRAS), 113.1%.
